The record followed here is patent USRE47689E1, “Compounds for treating spinal muscular atrophy” (PTC Therapeutics, Inc., priority 2011, dated 2019).

The structures appear in SMILES notation.

Usually melting point stands for the temperature, or range, at which the solid turns liquid.

Data set [1] concerns SMN2 minigene (full length SMN2 minigene mRNA containing SMN2 exon 7). In words: SMN2 minigene mRNA splicing RT-qPCR assay in cultured cells. It counts as cell-based, human. To be noted: Homo sapiens, HEK293-H; HEK293H cells stably transfected with SMN2-A minigene; 24 hours; 7-point concentration curve; 1.5-fold relative to vehicle-treated cells; read-out: EC1.5x for production of full length SMN2 mRNA. In a few lines:
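Read-out: full-length (exon 7-included) SMN2 minigene mRNA by multiplex RT-qPCR with GAPDH, efficiency-corrected (1+E)^−Ct, GAPDH-normalized and divided by vehicle. Stably transfected HEK293H cells, 24 h compound exposure, duplicates per concentration. Value is EC1.5x, reported as star ranges.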
A general note: In qPCR the cycle at which signal appears reflects the starting amount.

In a further data set the test system is Smn protein. The experiment in a line: Smn protein assay in cultured cells (SMN HTRF). In kind it is cell-based, human. The following applies: 48 hours; for maximum fold (Fold) increase of Smn protein: SMA patient fibroblast cells, 7-point concentration data, fold increase relative to vehicle control (SMN HTRF); for EC1.5x (concentration giving 1.5-fold Smn protein increase): SMA Type 1 patient fibroblast cells (GM03813), 7-point concentration curve, SMN HTRF, concentration producing 1.5 times Smn protein vs DMSO vehicle control, read-out: EC1.5x for Smn protein expression. The gist of the method: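 Lysates in RIPA with protease inhibitors are incubated overnight at room temperature with HTRF anti-SMN antibodies. EC1.5x is derived from fold increase in ΔF over vehicle.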

In turn, `CCN1CCN(c2ccc3cc(-c4cc5ccccn5n4)c(=O)oc3c2)CC1` [Compound 194, 7-(4-ethylpiperazin-1-yl)-3-(pyrazolo[1,5-a]pyridin-2-yl)-2H-chromen-2-one] yielded a melting point of 246 to 248 °C. In data set [1], the EC (1.5-fold) is 0.3 to 1 µM. Also, the “maximum fold (Fold) increase of Smn protein” value (“maximum fold (Fold) increase” for short) in the data set on Smn protein is recorded as “* (maximum fold increase of ≤1.2)”.

In turn, `Cc1nn2cc(-c3cc4ccc(N5CCN[C@H](C)C5)cc4oc3=O)nc2s1` [Compound 483, 3-(2-methylimidazo[2,1-b][1,3,4]thiadiazol-6-yl)-7-[(3R)-3-methylpiperazin-1-yl]-2H-chromen-2-one] registered a melting point of 206 to 210 °C. Moreover, the EC (1.5-fold) in data set [1] lay within 0.1 to 0.3 µM. In the data set with Smn protein, the EC1.5x (concentration giving 1.5-fold Smn protein increase) was in the range of 1000 to 3000 nM; the “maximum fold (Fold) increase” value was “*** (fold increase between >1.35 and ≤1.5)”.

With `Cc1nn2cc(-c3cc4ccc(N5C[C@@H](C)N[C@@H](C)C5)cc4oc3=O)nc2s1` [Compound 443, 7-[(3R,5S)-3,5-dimethylpiperazin-1-yl]-3-(2-methylimidazo[2,1-b][1,3,4]thiadiazol-6-yl)-2H-chromen-2-one], the melting point fell in the range of 225 to 228 °C. For the same compound, the EC (1.5-fold) in data set [1] is less than 0.1 µM. In addition, in the data set with Smn protein, the EC1.5x (concentration giving 1.5-fold Smn protein increase) was 300 to 1000 nM; the “maximum fold (Fold) increase” value was “**** (fold increase between >1.5 and ≤1.65)”.

`COc1cccc(-c2cc3ccc(N4CCN[C@@H](C)C4)cc3oc2=O)n1` [Compound 362, 3-(6-methoxypyridin-2-yl)-7-[(3S)-3-methylpiperazin-1-yl]-2H-chromen-2-one] returned a melting point of 155 to 157 °C. For the same compound, the EC (1.5-fold) in data set [1] is 0.3 to 1 µM. Also, the “maximum fold (Fold) increase” value in the data set with Smn protein was “** (fold increase between >1.2 and ≤1.35)”.

On to `Cc1cn2cc(-c3cc4ccc(OC[C@H]5CCCN5)cc4oc3=O)nc2c(C)n1` [Cpd 948, 3-(6,8-dimethylimidazo[1,2-a]pyrazin-2-yl)-7-[(2R)-pyrrolidin-2-ylmethoxy]-2H-chromen-2-one], for which the melting point was 172 to 174 °C. Besides, the EC (1.5-fold) in data set [1] is less than 0.1 µM. Further, in the data set with Smn protein, the “maximum fold (Fold) increase” value is “*** (fold increase between >1.35 and ≤1.5)”.

In turn, `Cc1ccn2cc(-c3cc4ccc(N5CCN(C)[C@@H](C)C5)cc4oc3=O)nc2c1` [Compound 379, 7-[(3S)-3,4-dimethylpiperazin-1-yl]-3-(7-methylimidazo[1,2-a]pyridin-2-yl)-2H-chromen-2-one] displayed a melting point of 231 to 241 °C. For the same compound, in data set [1], the EC (1.5-fold) fell in the range of 0.3 to 1 µM. Also, in the data set on Smn protein, the “maximum fold (Fold) increase” value is “*** (fold increase between >1.35 and ≤1.5)”.

The compound `COc1ccc(-c2cc3c(F)cc(N4CCN[C@@H](C)C4)cc3oc2=O)cc1OC` [Compound 464, 3-(3,4-dimethoxyphenyl)-5-fluoro-7-[(3S)-3-methylpiperazin-1-yl]-2H-chromen-2-one] came in with a melting point of 118 to 120 °C. Besides, the EC (1.5-fold) in data set [1] was 0.1 to 0.3 µM. Besides, the “maximum fold (Fold) increase” value in the data set with Smn protein was “*** (fold increase between >1.35 and ≤1.5)”.

Regarding `COc1ccc(-c2cc3ccc(N4CCNCC4)cc3oc2=O)cc1` [Compound 447, 3-(4-methoxyphenyl)-7-(piperazin-1-yl)-2H-chromen-2-one], the melting point was 211 to 213 °C. The EC (1.5-fold) in data set [1] fell in the range of 1 to 3 µM. Moreover, the “maximum fold (Fold) increase” value in the data set on Smn protein is “* (maximum fold increase of ≤1.2)”.

Consider `Cc1ccn2cc(-c3cc4ccc(N5CCN[C@@H](C)C5)cc4oc3=O)nc2c1` [Compound 213, 3-(7-methylimidazo[1,2-a]pyridin-2-yl)-7-[(3S)-3-methylpiperazin-1-yl]-2H-chromen-2-one], for which the melting point lay within 234 to 244 °C. Further, the EC (1.5-fold) in data set [1] lay in the range of 0.1 to 0.3 µM. Also, the “maximum fold (Fold) increase” value in the data set with Smn protein was “*** (fold increase between >1.35 and ≤1.5)”.

Compound `Cc1cc(Cl)cn2cc(-c3cc4ccc(N5C[C@@H](C)N[C@@H](C)C5)cc4oc3=O)nc12` [Compound 265, 3-(6-chloro-8-methylimidazo[1,2-a]pyridin-2-yl)-7-[(3R,5S)-3,5-dimethylpiperazin-1-yl]-2H-chromen-2-one] returned a melting point of 271 to 281 °C. In addition, in data set [1], the EC (1.5-fold) lay in the range of 1 to 3 µM. The “maximum fold (Fold) increase” value in the data set with Smn protein is recorded as “* (maximum fold increase of ≤1.2)”.

Compound `CC(=O)O.Cc1cn2cc(-c3cc4ccc(N5CCN(C)[C@H](C)C5)cc4oc3=O)nc2c(O)n1` [Compound 760, 7-[(3R)-3,4-dimethylpiperazin-1-yl]-3-(8-hydroxy-6-methylimidazo[1,2-a]pyrazin-2-yl)-2H-chromen-2-one acetate] came in with a melting point of 304 to 306 °C. Also, the EC (1.5-fold) in data set [1] was 0.1 to 0.3 µM. The “maximum fold (Fold) increase” value in the data set with Smn protein was “*** (fold increase between >1.35 and ≤1.5)”.

`CN1CCCN(c2ccc3cc(-c4nc5ccccc5o4)c(=O)oc3c2)CC1` [Compound 47, 3-(1,3-benzoxazol-2-yl)-7-(4-methyl-1,4-diazepan-1-yl)-2H-chromen-2-one] displayed a melting point of 170 to 173 °C. For the same compound, the EC (1.5-fold) in data set [1] is 3 to 30 µM. Moreover, the “maximum fold (Fold) increase” value with Smn protein is “** (fold increase between >1.2 and ≤1.35)”.

In turn, `Cc1cn2cc(-c3cc4ccc(N5CCN[C@@H](C)C5)cc4oc3=O)cc2cn1` [Compound 647, 7-[(3S)-3-methylpiperazin-1-yl]-3-(3-methylpyrrolo[1,2-a]pyrazin-7-yl)-2H-chromen-2-one] came in with a melting point of 202 to 204 °C. Besides, the EC (1.5-fold) in data set [1] was less than 0.1 µM. In the data set on Smn protein, the EC1.5x (concentration giving 1.5-fold Smn protein increase) was less than 300 nM; the “maximum fold (Fold) increase” value was “**** (fold increase between >1.5 and ≤1.65)”.

The compound `Cc1ccc2nc(-c3cc4ccc(N5CCNCC5)c(F)c4oc3=O)cn2c1` [Compound 156, 8-fluoro-3-(6-methylimidazo[1,2-a]pyridin-2-yl)-7-(piperazin-1-yl)-2H-chromen-2-one] yielded a melting point of 313 to 319 °C. The EC (1.5-fold) in data set [1] is 1 to 3 µM. Further, the “maximum fold (Fold) increase” value with Smn protein was “** (fold increase between >1.2 and ≤1.35)”.

Take `CCc1cn2cc(-c3cc4ccc(N5CCCN(C)CC5)cc4oc3=O)nc2s1` [Compound 431, 3-(2-ethylimidazo[2,1-b][1,3]thiazol-6-yl)-7-(4-methyl-1,4-diazepan-1-yl)-2H-chromen-2-one]: the melting point was in the range of 188 to 191 °C. The EC (1.5-fold) in data set [1] was in the range of 1 to 3 µM. Besides, in the data set on Smn protein, the “maximum fold (Fold) increase” value is given as “* (maximum fold increase of ≤1.2)”.

The compound `Cc1cccc2[nH]c(-c3cc4ccc(N5CCNCC5)cc4oc3=O)nc12` [Compound 394, 3-(4-methyl-1H-benzimidazol-2-yl)-7-(piperazin-1-yl)-2H-chromen-2-one] returned a melting point of 206 to 211 °C. The EC (1.5-fold) in data set [1] fell in the range of 3 to 30 µM. In the data set on Smn protein, the “maximum fold (Fold) increase” value is given as “* (maximum fold increase of ≤1.2)”.

`Cc1csc(-c2cc3ccc(N4CCCN(C)CC4)cc3oc2=O)n1` [Compound 285, 7-(4-methyl-1,4-diazepan-1-yl)-3-(4-methyl-1,3-thiazol-2-yl)-2H-chromen-2-one] came in with a melting point of 190 to 200 °C. Besides, the EC (1.5-fold) in data set [1] lay within 1 to 3 µM. Also, in the data set with Smn protein, the “maximum fold (Fold) increase” value is “* (maximum fold increase of ≤1.2)”.
